Each molecule was assayed on LTC4 (assay: Antagonism in isolated guinea-pig trachea, Test method (i) (Table 3, given as LTC4 antagonism)). Details: Cavia porcellus, 5 min, test compound 10^-5 g/ml, given as LTC4 antagonisms.
Type: cell-based
Protocol: (i) LTC4 and LTD4 antagonisms in guinea-pig trachea
Antagonisms for LTC4 and LTD4 were determined in isolated guinea-pig trachea prepared as spiral strip. Tracheal preparations were suspended under 1 g tension in 10 ml organ baths and they were incubated for 1 hr prior to use. Contractile responses to LTC4 (2×10^-8 g/ml) and LTD4 (2×10^-8 g/ml) were obtained after the maximal response to histamine (10^-4 M). Test compounds dissolved in 100% dimethyl sulfoxide were added to the organ baths (final concentration of 10^-5 g/ml or 10^-6 g/ml) 5 min prior to LTC4 and LTD4 addition, and then contractile responses to LTC4 and LTD4 were compared with those of control which was obtained from a paired trachea in the absence of test compounds. LTC4 - and LTD4 -induced contractions were expressed as a percentage of the maximal response to histamine. The antagonism was determined as follows:
Antagonism (%)=(1.0-% contraction in test/% contraction in […]
`CCCc1cc(-c2nnn[nH]2)ccc1OCCCNc1cnn(C(C)(C)C)c(=O)c1Cl` [Compound No. 2, 4-Chloro-5-{3-[2-n-propyl-4-(1H-tetrazol-5-ylphenoxy)]propylamino}-2-t-butyl-3(2H)pyridazinone] was tested, and the inhibition at 10 µg/mL was 15%.
In the case of `CCCc1cc(C(=O)OC)ccc1OCCCNc1cnn(C(C)(C)C)c(=O)c1Cl` [Compound No. 3], the inhibition at 10 µg/mL is reported as 28%.
Molecule `CCOC(=O)c1ccc(OCCCNc2cnn(C(C)(C)C)c(=O)c2Cl)c(Cl)c1` [Compound No. 8] has an inhibition at 10 µg/mL of 32%.
For `CC(C)(C)n1ncc(NCCCOc2ccc(C(=O)O)cc2Cl)c(Cl)c1=O` [Compound No. 9], the inhibition at 10 µg/mL was 14%.
With `CCn1ncc(NCCCOc2ccc(C(=O)O)cc2Cl)c(Cl)c1=O` [Compound No. 11] the inhibition at 10 µg/mL was 13%.
`CCCc1cc(C(=O)O)ccc1OCCCNc1cnn(C)c(=O)c1Cl` [Compound No. 12] gave an inhibition at 10 µg/mL of 35%.
`Cc1ccc(S(=O)(=O)OCCCNc2cnn(C(C)(C)C)c(=O)c2Cl)cc1` [Compound No. 15, 4-Chloro-5-[3-(4-methylphenylsulfonyloxy)propylamino]-2-t-butyl-3(2H)pyridazinone] was tested, and the inhibition at 10 µg/mL was 40%.
`COc1ccc(CCNc2cnn(C(C)(C)C)c(=O)c2Cl)cc1OC` [Compound No. 16] showed an inhibition at 10 µg/mL of 31%.
In the case of `CCn1ncc(NCCCOC(=O)c2ccc(Cl)cc2)c(Cl)c1=O` [Compound No. 17], the inhibition at 10 µg/mL is reported as 45%.
With `CCn1ncc(NCCc2ccc(OC)c(OC)c2)c(Cl)c1=O` [Compound No. 18] the inhibition at 10 µg/mL was 20%.
`CCOC(=O)c1ccc(OCCCOc2cnn(CC)c(=O)c2Cl)c(Cl)c1` [Compound No. 30, 4-Chloro-5-[3-(2-chloro-4-ethoxycarbonylphenoxy)propoxy]-2-ethyl-3(2H)pyridazinone] showed an inhibition at 10 µg/mL of 40%.
`CCCc1c(OCCCOc2cnn(C(C)(C)C)c(=O)c2Cl)ccc(C(C)=O)c1O` [Compound No. 37, 4-Chloro-5-[3-(2-n-propyl-3-hydroxy-4-acetylphenoxy)propoxy]-2-t-butyl-3(2H)pyridazinone] showed an inhibition at 10 µg/mL of 40%.
Work on `CCCc1cc(C(=O)OCC)ccc1OCCCNc1cnn(C(C)C)c(=O)c1` [Compound No. 63, 5-[3-(2-n-propyl-4-ethoxycarbonylphenoxy)propylamino]-2-i-propyl-3(2H)pyridazinone] yielded an inhibition at 10 µg/mL of 54%.
`CCCc1cc(C(=O)OC)ccc1OCCCN(C)c1cnn(C(C)C)c(=O)c1Cl` [Compound No. 73, 4-Choloro-5-[3-(2-n-propyl-4-methoxycarbonylphenoxy)propyl-N-methylamino]-2-i-propyl-3(2H)pyridazinone] was tested, and the inhibition at 10 µg/mL was 48%.
With `CCc1cc(C=O)ccc1OCCCNc1cnn(CC)c(=O)c1Cl` [Compound No. 92, 4-chloro-5-[3-(2-ethyl-4-formylphenoxy)propylamino]-2-ethyl-3(2H) pyridazinone] the inhibition at 10 µg/mL was 100%.
`CCc1cc(C=CC(=O)O)ccc1OCCCNc1cnn(CC)c(=O)c1Cl` [Compound No. 93, 4-Chloro-5-{3-[2-ethyl-4-(2-carboxyethenyl)phenoxy]propylamino}-2-ethyl-3(2H)pyridazinone] showed an inhibition at 10 µg/mL of 79%.
`CCCc1cc(O)ccc1OCCCNc1cnn(CC)c(=O)c1Cl` [Compound No. 108, 4-Chloro-5-[3-(2-n-propyl-4-hydroxyphenoxy)propylamino]-2-ethyl-3(2H)pyridazinone] showed an inhibition at 10 µg/mL of 94%.
For `Cc1ccc(S(=O)(=O)OCC(O)CNc2cnn(C(C)C)c(=O)c2Cl)cc1` (stereo not drawn) [Compound No. 143, 4-Chloro-5-[3-(4-methylphenylsulfonyloxy)-2-hydroxypropylamino]-2-i-propyl-3(2H)pyridazinone], the inhibition at 10 µg/mL was 26%.
Work on `CCCc1cc(C#N)ccc1SCC(O)CNc1cnn(C(C)C)c(=O)c1Cl` (stereo not drawn) [Compound No. 153, 4-Chloro-5-[3-(2-n-propyl-4-cyanothiophenoxy)-2-hydroxypropylamino]-2-i-propyl-3(2H)pyridazinone] yielded an inhibition at 10 µg/mL of 64%.
Molecule `CCCc1cc(C(=O)O)ccc1SCC(O)CNc1cnn(C(C)C)c(=O)c1Cl` (stereo not drawn) [Compound No. 154, 4-Chloro-5-[3-(2-n-propyl-4-carboxythiophenoxy)-2-hydroxypropylamino]-2-i-propyl-3(2H)pyridazinone] has an inhibition at 10 µg/mL of 20%.
For `CCCc1cc(C(=O)OC)ccc1SCC(O)CNc1cnn(C(C)C)c(=O)c1Cl` (stereo not drawn) [Compound No. 155, 4-Chloro-5-[3-(2-n-propyl-4-methoxycarbonylthiophenoxy)-2-hydroxypropylamino]-2-i-propyl-3(2H) pyridazinone], the inhibition at 10 µg/mL was 55%.
With `CCCc1cc(C#N)ccc1OCC(CN(C)c1cnn(C(C)C)c(=O)c1Cl)OC` (stereo not drawn) [Compound No. 157, 4-Chloro-5-[3-(2-n-propyl-4-cyanophenoxv)-2-methoxypropyl-N-methylamino]-2-i-propyl-3(2H)pyridazinone] the inhibition at 10 µg/mL was 62%.
Molecule `COC(=O)CCC(=O)c1ccc(OCC(O)CNc2cnn(C(C)C)c(=O)c2Cl)cc1` (stereo not drawn) [Compound No. 166, 4-chloro-5-{3-[4-(β-methoxycarbonylpropyonyl)phenoxy]-2-hydroxypropylamino}-2-i-propyl-3(2H) pyridazinone] has an inhibition at 10 µg/mL of 25%.
`COC(=O)CC(C)C(=O)c1ccc(OCC(CN(C)c2cnn(C(C)C)c(=O)c2Cl)OC)cc1` (stereo not drawn) [Compound No. 167, 4-Chloro-5-{3-[4-(β-methoxycarbonyl-α-methylpropionyl)phenoxy]-2-methoxypropyl-N-methylamino}-2-i-propyl-3(2H)pyridazinone] gave an inhibition at 10 µg/mL of 30%.
`CCCc1cc(C#N)ccc1OCC(O)COc1cnn(C(C)C)c(=O)c1Cl` (stereo not drawn) [Compound No. 171, 4-Chloro-5-[3-(2-n-propyl-4-cyanophenoxy)-2-hydroxypropoxy]-2-i-propyl-3(2H)pyridazinone] was tested, and the inhibition at 10 µg/mL was 66%.
In the case of `CCCc1cc(C#N)ccc1OCC(COc1cnn(C(C)C)c(=O)c1Cl)OC` (stereo not drawn) [Compound No. 172, 4-Chloro-5-[3-(2-n-propyl-4-cyanophenoxy)-2-methoxypropoxy]-2-i-propyl-3(2H)pyridazinone], the inhibition at 10 µg/mL is reported as 79%.
`CCCc1cc(C(=O)O)ccc1OCCCNc1cnn(C(C)(C)C)c(=O)c1Cl` [compound 5] gave an inhibition at 10 µg/mL of 33%.
With `COc1ccc(CCNc2cnn(C(C)(C)C)c(=O)c2Cl)cc1` [compound 19] the inhibition at 10 µg/mL was 60%.
For `CCCc1c(OCCCOc2cnn(C(C)(C)C)c(=O)c2Cl)ccc2c(=O)cc(C(=O)O)oc12` [compound 24], the inhibition at 10 µg/mL was 40%.
`CCCc1c(OCCCOc2cnn(C(C)(C)C)c(=O)c2CC)ccc2c(=O)cc(C(=O)OCC)oc12` [compound 26] was tested, and the inhibition at 10 µg/mL was 15%.
`CCn1ncc(OCCCOc2ccc(C(=O)O)cc2Cl)c(Cl)c1=O` [compound 31] gave an inhibition at 10 µg/mL of 19%.
For `CCOC(=O)c1ccc(OCCCOc2cnn(C(C)(C)C)c(=O)c2Cl)c(Cl)c1` [compound 32], the inhibition at 10 µg/mL was 29%.
`CC(C)(C)n1ncc(OCCCOc2ccc(C(=O)O)cc2Cl)c(Cl)c1=O` [compound 33] was tested, and the inhibition at 10 µg/mL was 15%.
`COc1cccc(OCCCOc2cnn(C(C)(C)C)c(=O)c2Br)c1` [compound 34] showed an inhibition at 10 µg/mL of 61%.
`CCCc1cc(-c2nn[nH]n2)ccc1OCCCNc1cnn(CC)c(=O)c1Cl` [compound 48] showed an inhibition at 10 µg/mL of 36%.
With `CCOC(=O)c1ccc(OCCCNc2cnn(CC)c(=O)c2Cl)c(OC)c1` [compound 49] the inhibition at 10 µg/mL was 57%.
Work on `CCn1ncc(NCCCOc2ccccc2OC)c(Cl)c1=O` [compound 50] yielded an inhibition at 10 µg/mL of 35%.
`CCn1ncc(NCCCOc2ccc(C(=O)O)cc2OC)c(Cl)c1=O` [compound 52] showed an inhibition at 10 µg/mL of 23%.
Work on `CCOc1ccc(OCCCNc2cnn(CC)c(=O)c2Cl)cc1` [compound 53] yielded an inhibition at 10 µg/mL of 59%.
`CCn1ncc(NCCCOc2ccc(C)cc2)c(Cl)c1=O` [compound 54] was tested, and the inhibition at 10 µg/mL was 64%.
In the case of `CCn1ncc(NCCCOc2ccc(OC)cc2)c(Cl)c1=O` [compound 56], the inhibition at 10 µg/mL is reported as 62%.
For `CCn1ncc(NCCCOc2ccccc2C)c(Cl)c1=O` [compound 57], the inhibition at 10 µg/mL was 83%.
For `COc1ccc(OCCCNc2cnn(C(C)C)c(=O)c2Cl)cc1` [compound 58], the inhibition at 10 µg/mL was 88%.
In the case of `COc1ccccc1OCCCNc1cnn(C(C)C)c(=O)c1Cl` [compound 59], the inhibition at 10 µg/mL is reported as 82%.
Work on `CCCc1cc(C#N)ccc1SCCCNc1cnn(C(C)C)c(=O)c1Cl` [compound 61] yielded an inhibition at 10 µg/mL of 73%.
`CCCc1cc(C(=O)O)ccc1SCCCNc1cnn(C(C)C)c(=O)c1Cl` [compound 62] was tested, and the inhibition at 10 µg/mL was 57%.
Work on `CC(C)n1ncc(NCCc2ccc(O)cc2)c(Cl)c1=O` [compound 66] yielded an inhibition at 10 µg/mL of 69%.
In the case of `CCCc1cc(-c2nnn[nH]2)ccc1SCCCNc1cnn(C(C)C)c(=O)c1Cl` [compound 68], the inhibition at 10 µg/mL is reported as 33%.
`C=CCc1cc(C(=O)O)ccc1OCCCNc1cnn(C(C)C)c(=O)c1Cl` [compound 70] gave an inhibition at 10 µg/mL of 65%.
In the case of `CC(C)n1ncc(NCCCOc2ccc(C(=O)CCC(=O)O)cc2)c(Cl)c1=O` [compound 75], the inhibition at 10 µg/mL is reported as 16%.
`COC(=O)CCC(=O)c1ccc(OCCCNc2cnn(C(C)C)c(=O)c2Cl)cc1` [compound 76] was tested, and the inhibition at 10 µg/mL was 57%.
`COC(=O)CCC(=O)c1ccc(OCCCN(C)c2cnn(C(C)C)c(=O)c2Cl)cc1` [compound 77] gave an inhibition at 10 µg/mL of 17%.
For `CC(C)n1ncc(N(C)CCCOc2ccc(C(=O)CCC(=O)O)cc2)c(Cl)c1=O` [compound 78], the inhibition at 10 µg/mL was 32%.
`COC(=O)c1ccc(OCCCOc2cnn(C(C)C)c(=O)c2Cl)c(C(C)C)c1` [compound 79] showed an inhibition at 10 µg/mL of 58%.
Work on `C=CCc1cc(C(=O)OC)ccc1OCCCNc1cnn(CC)c(=O)c1Cl` [compound 81] yielded an inhibition at 10 µg/mL of 80%.
Work on `CCCc1cc(C(=O)O)ccc1OCCCOc1cnn(CC)c(=O)c1Cl` [compound 83] yielded an inhibition at 10 µg/mL of 46%.
With `CCCc1cc(C(=O)OC)ccc1OCCCOc1cnn(CC)c(=O)c1Cl` [compound 84] the inhibition at 10 µg/mL was 85%.

Source: patent US4783462A, “3(2H)pyridazinone, and anti-allergic agent containing it” (Nissan Chemical Industries Ltd., priority 1985, dated 1988)
